Experimental data reported in US12180207B2 (ARRAY BIOPHARMA INC., priority 2018, dated 2024).

Assays:
[1] = biological target: dephosphorylated FGFR1 (SEQ ID NO: 1, amino acids 458 to 765) (Homo sapiens (Human), UniProt P11362); test: FGFR enzyme binding assay (HTRF tracer displacement), FGFR1; conditions: 5 nM dephosphorylated FGFR1, average of multiple determinations if made
Procedure, shortened: (§1)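 Compounds were tested for displacement of a tracer from human FGFR kinase in a time-resolved FRET binding format. After 60 minutes at 22° C, signal was read at two wavelengths and converted to percent of control, normalised between untreated wells and 1 μM reference inhibitor.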

[2] = biological target: phosphorylated FGFR3 (SEQ ID NO: 5, amino acids 449 to 759) (Homo sapiens (Human), UniProt P22607); test: FGFR enzyme binding assay (HTRF tracer displacement), FGFR3; conditions: 5 nM phosphorylated FGFR3, average of multiple determinations if made
Procedure, shortened: as §1

[3] = biological target: recombinant human FGFR1 catalytic domain (amino acids 308-731) (Homo sapiens (Human), UniProt P11362); test: FGFR1 enzyme activity assay (LanthaScreen TR-FRET); assay type: biochemical; conditions: 20 min incubation at 22° C., average of multiple determinations if made, read-out: FGFR1 Enz FRET IC50
Procedure, shortened: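 His-tagged FGFR1 kinase domain with 100 nM Alexa Fluor 647-poly-GT peptide and ATP in pH 7.5 HEPES/MgCl2 buffer with 2% DMSO, 20 min at 22 °C. Quenched with EDTA plus 2 nM Eu-PY20 antibody and read after 60 min. IC50 comes from a 4-parameter fit of percent of control.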

[4] = biological target: recombinant human FGFR2 cytoplasmic domain (amino acids 403-822) (Homo sapiens (Human), UniProt P21802); test: FGFR2 enzyme activity assay (LanthaScreen TR-FRET); assay type: biochemical; conditions: 15 μM ATP, 20 min incubation at 22° C., average of multiple determinations if made, read-out: FGFR2 Enz FRET IC50
Procedure, shortened: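 His-tagged FGFR2 cytoplasmic domain ([…]) with 100 nM Alexa Fluor 647-poly-GT peptide and 15 μM ATP in HEPES/MgCl2/Triton buffer, pH 7.5, 2% DMSO, 20 min at 22 °C. EDTA-quenched, Eu-PY20 antibody added, TR-FRET read after 60 min.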

[5] = biological target: FGFR1 (SEQ ID NO: 1, amino acids 458-765) (Homo sapiens (Human), UniProt P11362); test: LC/MS FGFR1 kobs assay (covalent protein modification); assay type: binding; conditions: 500 nM FGFR1, 3 μM compound
Procedure, shortened: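 Covalent labeling of FGFR1 kinase domain (aa 458-765) tracked over time by intact-protein LC/MS after formic acid quench. kobs derived by fitting DMSO-normalized percent unmodified FGFR1 to an exponential decay model.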

[6] = biological target: FGFR3 (SEQ ID NO: 5, amino acids 449-759) (Homo sapiens (Human), UniProt P22607); test: LC/MS FGFR3 kobs assay (covalent protein modification); assay type: binding; conditions: 500 nM FGFR3, 3 μM compound
Procedure, shortened: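 Intact-mass LC/MS tracks covalent labeling of the kinase domain over time after acid quench (0.4% formic acid). Unmodified fraction, scaled to DMSO controls, is fitted as exponential decay; kobs is reported, averaged when measured more than once.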

Sequence of dephosphorylated FGFR1 (SEQ ID NO: 1, amino acids 458 to 765) (P11362 458-765): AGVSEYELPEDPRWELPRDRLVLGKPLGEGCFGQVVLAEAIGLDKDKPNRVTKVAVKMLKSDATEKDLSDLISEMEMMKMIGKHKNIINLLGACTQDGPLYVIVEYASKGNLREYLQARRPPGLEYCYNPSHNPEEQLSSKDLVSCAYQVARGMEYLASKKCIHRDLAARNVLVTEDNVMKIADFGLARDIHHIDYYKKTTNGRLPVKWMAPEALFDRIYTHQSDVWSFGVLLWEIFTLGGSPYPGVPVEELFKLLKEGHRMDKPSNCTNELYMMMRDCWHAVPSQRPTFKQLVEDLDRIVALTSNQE
Sequence of FGFR1 (SEQ ID NO: 1, amino acids 458-765) (P11362 458-765): as above
Sequence of phosphorylated FGFR3 (SEQ ID NO: 5, amino acids 449 to 759) (P22607 449-759): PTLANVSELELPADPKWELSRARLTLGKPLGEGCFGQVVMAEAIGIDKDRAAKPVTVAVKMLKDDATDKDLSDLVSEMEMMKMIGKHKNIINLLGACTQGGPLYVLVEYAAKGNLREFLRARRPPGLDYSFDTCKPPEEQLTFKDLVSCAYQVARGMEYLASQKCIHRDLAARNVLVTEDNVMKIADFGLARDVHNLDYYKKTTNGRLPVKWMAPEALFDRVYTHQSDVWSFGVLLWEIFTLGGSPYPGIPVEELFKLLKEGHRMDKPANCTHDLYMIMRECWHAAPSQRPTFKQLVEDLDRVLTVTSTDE
Sequence of FGFR3 (SEQ ID NO: 5, amino acids 449-759) (P22607 449-759): as above
Sequence of recombinant human FGFR2 cytoplasmic domain (amino acids 403-822) (P21802 402-821): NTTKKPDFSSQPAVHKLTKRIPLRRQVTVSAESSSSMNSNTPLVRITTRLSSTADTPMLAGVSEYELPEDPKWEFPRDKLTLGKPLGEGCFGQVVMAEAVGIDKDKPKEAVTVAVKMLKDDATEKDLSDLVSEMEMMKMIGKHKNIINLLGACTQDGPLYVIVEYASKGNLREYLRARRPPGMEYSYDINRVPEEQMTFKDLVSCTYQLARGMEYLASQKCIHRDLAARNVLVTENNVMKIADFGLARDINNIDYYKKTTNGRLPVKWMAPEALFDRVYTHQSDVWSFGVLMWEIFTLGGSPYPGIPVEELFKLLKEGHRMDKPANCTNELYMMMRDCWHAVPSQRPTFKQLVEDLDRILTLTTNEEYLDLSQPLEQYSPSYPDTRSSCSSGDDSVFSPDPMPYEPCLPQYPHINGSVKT
Sequence of recombinant human FGFR1 catalytic domain (amino acids 308-731) (P11362 other isoform, or with tags, fused parts or gaps): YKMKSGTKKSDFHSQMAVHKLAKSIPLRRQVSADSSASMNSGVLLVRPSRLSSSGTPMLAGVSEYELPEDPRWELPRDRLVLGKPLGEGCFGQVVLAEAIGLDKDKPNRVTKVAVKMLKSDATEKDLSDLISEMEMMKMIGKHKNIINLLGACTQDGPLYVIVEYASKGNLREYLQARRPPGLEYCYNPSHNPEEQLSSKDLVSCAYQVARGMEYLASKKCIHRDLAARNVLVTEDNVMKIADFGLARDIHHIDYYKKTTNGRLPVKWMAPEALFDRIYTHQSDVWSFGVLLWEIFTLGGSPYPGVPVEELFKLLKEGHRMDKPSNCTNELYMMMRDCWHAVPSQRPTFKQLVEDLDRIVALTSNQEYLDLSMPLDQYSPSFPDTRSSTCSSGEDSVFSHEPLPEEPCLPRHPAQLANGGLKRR

| SMILES | IC50 [1] | IC50 [2] | IC50 [3] | IC50 [4] | FGFR1 Enz kobs [5] | FGFR3 Enz kobs [6] |
| --- | --- | --- | --- | --- | --- | --- |
| COc1cc(-c2cnn(C3CCN(CC4(OC)CN(C(=O)/C=C/CN(C)C)C4)CC3)c2C)cn2ncc(C#N)c12 [Example 159, (E)-6-(1-(1-((1-(4-(dimethylamino)but-2-enoyl)-3-methoxyazetidin-3-yl)methyl)piperidin-4-yl)-5-methyl-1H-pyrazol-4-yl)-4-methoxypyrazolo [1,5-a]pyridine-3-carbonitrile] | 0.144 µM | 0.003 µM | 0.07 µM | 0.007 µM | 0.00408 min⁻¹ | 0.0605 min⁻¹ |
| COc1cc(-c2cnn(C3CN(C(=O)C4(F)CN(C(=O)/C=C/CN(C)C)C4)C3)c2C)cn2ncc(C#N)c12 [Example 160, (E)-6-(1-(1-(1-(4-(dimethylamino)but-2-enoyl)-3-fluoroazetidine-3-carbonyl)azetidin-3-yl)-5-methyl-1H-pyrazol-4-yl)-4-methoxypyrazolo [1,5-a]pyridine-3-carbonitrile] | 0.571 µM | 0.016 µM | 0.248 µM | 0.179 µM | 0.00659 min⁻¹ | 0.08254 min⁻¹ |
| COc1cc(-c2c(C)nn(C3CCN(C(=O)C4(F)CN(C(=O)/C=C/CN(C)C)C4)CC3)c2C)cn2ncc(C#N)c12 [Example 161, (E)-6-(1-(1-(1-(4-(dimethylamino)but-2-enoyl)-3-fluoroazetidine-3-carbonyl)piperidin-4-yl)-3,5-dimethyl-1H-pyrazol-4-yl)-4-methoxypyrazolo [1,5-a]pyridine-3-carbonitrile] | 0.589 µM | 0.005 µM | 0.154 µM | 0.031 µM | 0.00744 min⁻¹ | 0.1129 min⁻¹ |
| CCc1c(-c2cc(OC)c3c(C#N)cnn3c2)cnn1C1CCN(C(=O)C2(F)CN(C(=O)/C=C/CN(C)C)C2)CC1 [Example 162, (E)-6-(1-(1-(1-(4-(dimethylamino)but-2-enoyl)-3-fluoroazetidine-3-carbonyl)piperidin-4-yl)-5-ethyl-1H-pyrazol-4-yl)-4-methoxypyrazolo [1,5-a]pyridine-3-carbonitrile] | 1.72 µM | 0.048 µM | 0.311 µM | 0.069 µM | 0.00455 min⁻¹ | 0.07862 min⁻¹ |
| COc1cc(-c2nn(C3CCN(C(=O)C4(F)CN(C(=O)/C=C/CN(C)C)C4)CC3)nc2C)cn2ncc(C#N)c12 [Example 163, (E)-6-(2-(1-(1-(4-(dimethylamino)but-2-enoyl)-3-fluoroazetidine-3-carbonyl)piperidin-4-yl)-5-methyl-2H-1,2,3-triazol-4-yl)-4-methoxypyrazolo [1,5-a]pyridine-3-carbonitrile] | 1.14 µM | 0.034 µM | 2.21 µM | 1.17 µM | 0.00486 min⁻¹ | 0.03573 min⁻¹ |
| COc1cc(-c2nnn(C3CCN(C(=O)C4(F)CN(C(=O)/C=C/CN(C)C)C4)CC3)c2C)cn2ncc(C#N)c12 [Example 164, (E)-6-(1-(1-(1-(4-(dimethylamino)but-2-enoyl)-3-fluoroazetidine-3-carbonyl)piperidin-4-yl)-5-methyl-1H-1,2,3-triazol-4-yl)-4-methoxypyrazolo [1,5-a]pyridine-3-carbonitrile] | 0.35 µM | 0.003 µM | 0.102 µM | 0.015 µM | 0.00713 min⁻¹ | 0.1705 min⁻¹ |
| COc1cc(-c2ccc(N3CCN(C(=O)C4(F)CN(C(=O)/C=C/CN(C)C)C4)CC3)nc2C)cn2ncc(C#N)c12 [Example 168, (E)-6-(6-(4-(1-(4-(dimethylamino)but-2-enoyl)-3-fluoroazetidine-3-carbonyl)piperazin-1-yl)-2-methylpyridin-3-yl)-4-methoxypyrazolo [1,5-a]pyridine-3-carbonitrile] | 0.608 µM | 0.034 µM | 0.148 µM | 0.05 µM | 0.00847 min⁻¹ | 0.06456 min⁻¹ |
| COc1cc(-c2cnc(N3CCN(C(=O)C4(F)CN(C(=O)/C=C/CN(C)C)C4)CC3)cc2C)cn2ncc(C#N)c12 [Example 169, (E)-6-(6-(4-(1-(4-(dimethylamino)but-2-enoyl)-3-fluoroazetidine-3-carbonyl)piperazin-1-yl) -4-methylpyridin-3-yl)-4-methoxypyrazolo [1,5-a]pyridine-3-carbonitrile] | 0.788 µM | 0.049 µM | 0.156 µM | 0.08 µM | 0.00576 min⁻¹ | 0.08 min⁻¹ |
| COc1cc(-c2cnn(C3CCN(C(=O)C4(F)CN(C(=O)/C=C/CN(C)C)C4)CC3)c2C)cn2ncc(Cl)c12 [Example 170, (E)-1-(3-(4-(4-(3-chloro-4-methoxypyrazolo [1,5-a]pyridin-6-yl)-5-methyl-1H-pyrazol-1-yl)piperidine-1-carbonyl)-3-fluoroazetidin-1-yl)-4-(dimethylamino)but-2-en-1-one] | 0.488 µM | 0.005 µM | 0.903 µM | 0.239 µM | 0.00774 min⁻¹ | 0.1388 min⁻¹ |
| COc1cc(-c2cnn(C3CCN(C(=O)C4(OC)CN(C(=O)/C=C/CN(C)C)C4)CC3)c2C)cn2ncc(Cl)c12 [Example 171, (E)-1-(3-(4-(4-(3-chloro-4-methoxypyrazolo [1,5-a]pyridin-6-yl)-5-methyl-1H-pyrazol-1-yl)piperidine-1-carbonyl)-3-methoxyazetidin-1-yl)-4-(dimethylamino)but-2-en-1-one] | 0.336 µM | 0.005 µM | 0.111 µM | 0.019 µM | 0.00471 min⁻¹ | 0.0804 min⁻¹ |
| C=CC(=O)N1CC(O)(C(=O)N2CCC(n3ncc(-c4cc(OC)c5c(Cl)cnn5c4)c3C)CC2)C1 [Example 172, 1-(3-(4-(4-(3-chloro-4-methoxypyrazolo [1,5-a]pyridin-6-yl)-5-methyl-1H-pyrazol-1-yl)piperidine-1-carbonyl)-3-hydroxyazetidin-1-yl)prop-2-en-1-one] | 0.922 µM | 0.025 µM | 0.856 µM | 0.454 µM | 0.00191 min⁻¹ | 0.02599 min⁻¹ |
| COc1cc(-c2cnn(C3CCN(CC4(OC)CN(C(=O)/C=C/CN(C)C)C4)CC3)c2C)cn2ncc(Cl)c12 [Example 173, (E)-1-(3-((4-(4-(3-chloro-4-methoxypyrazolo [1,5-a]pyridin-6-yl)-5-methyl-1H-pyrazol-1-yl)piperidin-1-yl)methyl)-3-methoxyazetidin-1-yl)-4-(dimethylamino)but-2-en-1-one] | 0.359 µM | 0.007 µM | 0.281 µM | 0.028 µM | 0.00434 min⁻¹ | 0.06559 min⁻¹ |
| COc1cc(-c2cnn(C3CCN(C(=O)C4CN(C(=O)/C=C/CN(C)C)C4)CC3)c2)cn2ncc(Cl)c12 [Example 174] | 0.194 µM | 0.012 µM | 0.016 µM | 0.006 µM | 0.00242 min⁻¹ | 0.02588 min⁻¹ |
| COc1cc(-c2cnn(C3CCN(CC4CN(C(=O)/C=C/CN5CCCCC5)C4)CC3)c2)cn2ncc(C#N)c12 [Example 175, (E)-4-methoxy-6-(1-(1-((1-(4-(piperidin-1-yl)but-2-enoyl)azetidin-3-yl)methyl)piperidin-4-yl)-1H-pyrazol-4-yl)pyrazolo[1,5-a]pyridine-3-carbonitrile] | 0.09 µM | 0.008 µM | 0.004 µM | 0.01 µM | 0.00204 min⁻¹ | 0.01233 min⁻¹ |
| C=CC(=O)N(C)c1ccc(C(=O)N2CCC(n3cc(-c4cc(OC)c5c(C#N)cnn5c4)cn3)CC2)cc1 [Example 178, N-(4-(4-(4-(3-cyano-4-methoxypyrazolo[1,5-a]pyridin-6-yl)-1H-pyrazol-1-yl)piperidine-1-carbonyl)phenyl)-N-methylacrylamide] | 0.061 µM | 0.008 µM | 0.014 µM | 0.005 µM | 0.00131 min⁻¹ | 0.01469 min⁻¹ |
